In paper PMC9005971, “Discovery of 2-(4-Acrylamidophenyl)-Quinoline-4-Carboxylic Acid Derivatives as Potent SIRT3 Inhibitors” (Frontiers in Chemistry, 2022):

Experiments:
SIRT3 = molecular target: T1, SIRT3 (Homo sapiens, UniProt Q9NTG7); assay: SIRT3 enzyme inhibitory assay (fluorescence); format: biochemical; details: for activity at 0.01 µM / activity at 0.033 µM / activity at 0.1 µM / activity at 0.333 µM / activity at 1 µM / activity at 3.3 µM / activity at 10 µM / activity at 33 µM / activity at 100 µM: SIRT3 enzyme activity; for activity at 0.01 µM: 10 nM; for activity at 0.033 µM: 33 nM; for activity at 0.1 µM: 100 nM; for activity at 0.333 µM: 333 nM
T1 sequence (Q9NTG7 1-399): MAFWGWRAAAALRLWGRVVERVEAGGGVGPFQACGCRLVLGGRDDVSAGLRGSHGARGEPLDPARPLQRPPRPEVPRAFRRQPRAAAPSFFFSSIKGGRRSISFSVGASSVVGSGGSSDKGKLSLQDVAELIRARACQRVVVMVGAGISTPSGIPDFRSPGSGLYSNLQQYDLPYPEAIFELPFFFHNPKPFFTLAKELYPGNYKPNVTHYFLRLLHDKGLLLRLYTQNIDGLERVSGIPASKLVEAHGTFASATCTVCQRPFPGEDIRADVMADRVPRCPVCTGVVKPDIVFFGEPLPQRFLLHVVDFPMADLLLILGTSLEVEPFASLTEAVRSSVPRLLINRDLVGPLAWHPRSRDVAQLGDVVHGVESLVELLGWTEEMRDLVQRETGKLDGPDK
Procedure: (§1) All of the enzymatic reactions were conducted at 37°C for 30 min. […] The compounds were diluted in 10% DMSO and 5 ul of the dilution was added to each reaction mixture (50 ul). The assay was performed by quantitating the amount of fluorescent product generated from the enzyme reaction. Fluorescence intensity is then analyzed at excitation wavelength of 350–360 nm and emission wavelength of 450–460 nm on a SpectraMax M5 microtiter plate reader. The IC50 values were calculated using Prism GraphPad software.

MOLM-13 cells = assay: In vitro antiproliferative CCK-8 assay, MOLM-13; format: cell-based; details: Homo sapiens, 72 h, read-out: IC50 growth inhibition MOLM-13
Procedure: (§2) The proliferation of THP-1, MOLM-13, SEM and MV4-11 cells was tested by CCK-8 assay. Briefly, cells were seeded in 96-well plate with about 5 × 10^3 cells in each well. The cells were treated with P6 or Ara-C (0–10 µM) after 24 h of incubation. CCK-8 reagent ([…]) was added to each well after 72 h of incubation, and cells were incubated at 37°C for 4 h. The light absorbance at 450 nm was measured by using an Opsys microplate reader (Dynex Technologirs, Chantilly, VA, United States). Results are illustrated as percent of cell viability normalized to DMSO-treated control cells.

[1] = system: THP-1, MOLM-13, SEM and MV4-11 cells; assay: Cell apoptosis analysis, MLLr leukemic cells; format: cell-based; details: 72 h, flow cytometry
Procedure: THP-1, MOLM-13, SEM and MV4-11 cells were treated with P6 (0.45–4 µM) or Ara-C (0.1–2.0 µM) for 72 h, collected and resuspended in 1× binding buffer. Cells were incubated with FITC Annexin V and PI double labeling for 30 min in the dark at room temperature and measured by flow cytometry.

THP-1 cells = assay: Colony formation assay, THP-1; format: cell-based; details: 12 days
Procedure: THP-1, MOLM-13, SEM and MV4-11 cells were cultured with P6 (0–2.0 µM) in 2.6% methycellulose medium containing 10% FBS in a 24-well flat-bottomed plate for 12 days ([Qu et al., 2021]). The number of individual colonies consisting of more than approximately 50 cells was counted by a CX43 microscope (Olympus, Shinjuku-ku, Tokyo, Japan) with an Olympus EP50 camera (Olympus, Shinjuku-ku, Tokyo, Japan).

SEM cells = assay: In vitro antiproliferative CCK-8 assay, SEM; format: cell-based; details: 72 h, read-out: IC50 growth inhibition SEM
Procedure: as §2

[2] = system: THP-1, MOLM-13, SEM and MV4-11 cells; assay: Cell cycle analysis, MLLr leukemic cells; format: cell-based; details: 0.9–2.0 µM
Procedure: THP-1, MOLM-13, SEM and MV4-11 cells were incubated with 1.0 (THP-1, MOLM-13 cells) and 2.0 (SEM and MV4-11 cells) µM of P6 for 72 h. After treatment, cells were collected and fixed with 70% pre-cold ethanol in PBS and stored at −20°C for at least 24 h. Then the cells were stained with […] RNase A for 30 min in the dark at room temperature. Finally, flow cytometry was used to detect the percentage of cells in the sub-G1, G0/G1, S, and G2/M phases with a Beckman Coulter DxFLEX flow cytometer (Florida, Miami, USA). The data was analyzed and fitted by ModFit software.

MV4-11 cells = assay: In vitro antiproliferative CCK-8 assay, MV4-11; format: cell-based; details: Homo sapiens, 72 h, read-out: IC50 growth inhibition MV4-11
Procedure: as §2

SIRT2 = molecular target: T2, SIRT2 (Homo sapiens, UniProt Q8IXJ6); assay: SIRT2 enzyme inhibitory assay (fluorescence); format: biochemical; details: for activity at 0.01 µM / activity at 0.033 µM / activity at 0.1 µM / activity at 0.333 µM / activity at 1 µM / activity at 3.3 µM / activity at 10 µM / activity at 33 µM / activity at 100 µM: SIRT2 enzyme activity; for activity at 0.01 µM: 10 nM; for activity at 0.033 µM: 33 nM; for activity at 0.1 µM: 100 nM; for activity at 0.333 µM: 333 nM
T2 sequence (Q8IXJ6 1-389): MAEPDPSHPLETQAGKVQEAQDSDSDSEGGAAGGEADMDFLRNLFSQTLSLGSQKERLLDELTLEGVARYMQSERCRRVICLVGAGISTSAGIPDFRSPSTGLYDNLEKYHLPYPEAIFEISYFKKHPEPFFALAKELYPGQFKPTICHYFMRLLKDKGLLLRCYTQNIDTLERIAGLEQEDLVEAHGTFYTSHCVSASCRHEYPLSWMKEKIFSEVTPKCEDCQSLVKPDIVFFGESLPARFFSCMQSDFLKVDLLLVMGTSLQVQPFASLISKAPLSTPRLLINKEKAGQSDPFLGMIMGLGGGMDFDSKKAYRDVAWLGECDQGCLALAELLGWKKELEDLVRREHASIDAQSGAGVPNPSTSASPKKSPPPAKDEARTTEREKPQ
Procedure: as §1

In the case of `C=CC(=O)Nc1ccc(-c2cc(C(=O)N3CCN(c4ccccc4F)CC3)c3ccccc3n2)cc1` [Compound P6, N-(4-{4-[4-(2-Fluoro-phenyl)-piperazine-1-carbonyl]-quinolin-2-yl}-phenyl)-acrylamide], the activity at 0.01 µM (SIRT3; Repeat1) is reported as 101%, the activity at 0.01 µM (SIRT3; Repeat2) is reported as 99% and the activity at 0.033 µM (SIRT3; Repeat1) is reported as 98%. The activity at 0.033 µM (SIRT3; Repeat2) was 97%, the activity at 0.1 µM (SIRT3; Repeat1) was 104% and the activity at 0.1 µM (SIRT3; Repeat2) was 95%. The activity at 0.333 µM (SIRT3; Repeat1) was 95%, the activity at 0.333 µM (SIRT3; Repeat2) was 88% and the activity at 1 µM (SIRT3; Repeat1) was 76%. The activity at 1 µM (SIRT3; Repeat2) was 74%, the activity at 3.3 µM (SIRT3; Repeat1) was 61% and the activity at 3.3 µM (SIRT3; Repeat2) was 59%. It also gave an activity at 10 µM (SIRT3; Repeat1) of 38%, an activity at 10 µM (SIRT3; Repeat2) of 38% and an activity at 33 µM (SIRT3; Repeat1) of 33%. The activity at 33 µM (SIRT3; Repeat2) was 31%, the activity at 100 µM (SIRT3; Repeat1) was 24% and the activity at 100 µM (SIRT3; Repeat2) was 21%. The inhibition at 10 µM (SIRT3; dose of 10 μM, mean of three experiments, read-out: SIRT3 percentage inhibitory rate) was 65.2 ± 3.26%, the “selectivity among SIRT1-3” value (SIRT3; enzyme selectivity test, SIRT3 vs SIRT1 and SIRT2) was “can selectively inhibit SIRT3” and the IC50 (SIRT3; mean of two experiments) was 7200 ± 500 nM. For the same compound, the IC50 (MOLM-13 cells) was 980 nM, the induction of apoptosis [1] was “no significant apoptosis” and the colony formation percentage (THP-1 cells; THP-1, 0.2 µM) was 93.2. For the same compound, the colony formation percentage (THP-1 cells; THP-1, 0.4 µM) was 13.4, the colony formation percentage (THP-1 cells; THP-1, 0.8 µM) was 4.1 and the IC50 (SEM cells) was 1790 nM. The “effect on cell cycle progression” value [2] was “capable of causing MLLr leukemic cell cycle arrest at G0/G1 phase”, the IC50 (MV4-11 cells) was 1900 nM and the activity at 0.01 µM (SIRT2; Repeat1) was 100%. It also gave an activity at 0.01 µM (SIRT2; Repeat2) of 98%, an activity at 0.033 µM (SIRT2; Repeat1) of 96% and an activity at 0.033 µM (SIRT2; Repeat2) of 100%. The activity at 0.1 µM (SIRT2; Repeat1) was 101%, the activity at 0.1 µM (SIRT2; Repeat2) was 101% and the activity at 0.333 µM (SIRT2; Repeat1) was 100%. It also gave an activity at 0.333 µM (SIRT2; Repeat2) of 95%, an activity at 1 µM (SIRT2; Repeat1) of 93% and an activity at 1 µM (SIRT2; Repeat2) of 83%. For the same compound, the activity at 3.3 µM (SIRT2; Repeat1) was 83%, the activity at 3.3 µM (SIRT2; Repeat2) was 73% and the activity at 10 µM (SIRT2; Repeat1) was 64%. It also gave an activity at 10 µM (SIRT2; Repeat2) of 65%, an activity at 33 µM (SIRT2; Repeat1) of 51% and an activity at 33 µM (SIRT2; Repeat2) of 48%. It also gave an activity at 100 µM (SIRT2; Repeat1) of 36%, an activity at 100 µM (SIRT2; Repeat2) of 39% and an IC50 (SIRT2; mean of two experiments) of 33500 ± 1600 nM.
